From PMC3359361, “Antimalarial Activity and Mechanisms of Action of Two Novel 4-Aminoquinolines against Chloroquine-Resistant Parasites” (PLoS ONE, 2012)

Columns and labels:
[1] = tested on: P. falciparum W2 clone (CQ-resistant and mefloquine-sensitive); assay: ELISA anti-HRPII assay, W2 clone; assay type: cell-based; details: Plasmodium falciparum
Description: (§1) Human erythrocytes (A^+) and serum blood group A+ were kindly donated by Center of Hemotherapy and Hemathology of Minas Gerais (HEMOMINAS). Immediately before the tests, ring stage-parasites were synchronized in sorbitol. Synchronized parasites were stained with orange green in pre-dried coverslips then immediately examined under a fluorescent microscope. The suspension was adjusted for parasitemia and hematocrit as described below for each test. The infected red blood cells were distributed in a 96-well microtiter plate (Corning, Santa Clara, CA, EUA) at 180 µL/well, in which 20 µL of the test drugs and controls were previously diluted at different concentrations (400-0.625 ng/mL) in 0.005% DMSO (v/v) (Sigma, USA).
(§2) The [^3H]-hypoxanthine assay was performed at 1% parasitemia and 1% hematocrit and the level of isotope incorporation was read in a beta-counter (PerkinElmer, Waltham, MA, EUA). The anti-HRPII test was performed at 0.05% parasitemia and 1.5% hematocrit and the HRPII quantification was read at 450 nm in a spectrophotometer (SpectraMax340PC^384, Molecular Devices). […] Curve-fitting was performed using Origin 8.0 software (OriginLab Corporation, Northampton, MA, USA).

[2] = tested on: P. falciparum W2 clone (CQ-resistant and mefloquine-sensitive); assay: 3H hypoxanthine incorporation, W2 clone; assay type: cell-based; details: Plasmodium falciparum
Description: as §1, §2

[3] = tested on: P. falciparum 3D7 strain (CQ-sensitive); assay: ELISA anti-HRPII assay, 3D7 strain; assay type: cell-based; details: Plasmodium falciparum
Description: as §1, §2

[4] = tested on: P. falciparum 3D7 strain (CQ-sensitive); assay: 3H hypoxanthine incorporation, 3D7 strain; assay type: cell-based; details: Plasmodium falciparum
Description: as §1, §2

P. berghei, NK65 strain = assay: Suppressive parasite growth test in P. berghei infected mice; assay type: in vivo; details: for Time of survival / Percent reduction of parasitemia, day 5 / Percent reduction of parasitemia, day 8 / Percent reduction of parasitemia, day 10: three consecutive days; for Percent reduction of parasitemia, day 5: day 5 post-infection; for Percent reduction of parasitemia, day 8: day 8 post-infection; for Percent reduction of parasitemia, day 10: day 10 post-infection
Method: A suppressive parasite growth test was used with P. berghei, NK65 strain (originally received from the New York University Medical School) infected mice as described previously with some modifications. Briefly, adult Swiss outbred mice (20±2 g weigh) were inoculated with 1×10^5 red blood cells infected with P. berghei, by intraperitoneal route. The infected mice were maintained together for at least 2 h and then divided randomly into groups of 3–5 animals per cage, which were subsequently treated with 25 and 50 mg/kg of each compound diluted in DMSO 3% (v/v) given daily by oral gavage for three consecutive days. […] Blood smears from mouse tails were prepared on days 5, 8 and 10 post-infection and then methanol-fixed, stained with Giemsa and examined microscopically.

[5] = tested on: monkey kidney cell line (BGM); assay: Cytotoxicity by MTT assay, BGM cells; assay type: cell-based
Method: (§3) The human hepatoma cell line (HepG2) was originally received from the New University of Lisbon, and the monkey kidney cell line (BGM) from the Federal University of Minas Gerais. […] For the in vitro tests, a confluent cell monolayer was trypsinized, washed with culture medium, distributed in a flat-bottomed 96-well plate (5×10^3 cells/well) and incubated for 18 h at 37°C to ensure cell adherence.
(§4) The cytotoxicity was evaluated with the MTT assay, 3-(4,5-Dimethylthiazol-2-yl)-2,5-diphenyltetrazolium bromide. Briefly, the HepG2 and BGM cell lines were incubated with 20 µL of the compounds at different concentrations (1000-1 µg/mL) for 24 h in a 5% CO2 and air atmosphere at 37°C. For the MTT assay, which evaluates mitochondrial viability, 20 µL of MTT solution (5 mg/mL) were added and the plates were incubated for a further 3 h. After incubation, the supernatant was carefully removed from the wells, followed by the addition of 100 µL DMSO with thorough mixing.
(§5) The neutral red assay was used to evaluate cell viability by the accumulation of dye in the viable cell lysosome. […] Cell viability was expressed as the percentage of control absorbance obtained in untreated cells after subtracting the absorbance of the appropriate background. Lastly, the minimum lethal dose for 50% of the cells (MLD50) was determined as previously described.

[6] = tested on: human hepatoma cell line (HepG2); assay: Cytotoxicity by MTT assay, HepG2 cells; assay type: cell-based
Method: as §3, §4, §5

hemozoin formation = assay: Inhibition of hemozoin assay; assay type: biochemical; details: dose-dependent; p<0.05 vs drug-free controls; two experiments in triplicate
Method: The hemozoin inhibition assay was performed as described by Ncokazi et al., (2002) with some modifications. Briefly, 10.1 µL of the aminoquinoline derivatives at different concentrations (40-0.62 mg/mL) and 101.2 µL of the hematin stock solution (1.68 mM in 0.1 M NaOH) were combined in triplicate in a flat-bottomed 96-well plate. The solutions were further mixed and 58.7 µL of acetate solution (12.9 M, pH 5.0) then added to each well. After incubation at 60°C, 80 µL of 30% (v/v) pyridine solution in 20 mM HEPES, pH 7.5, were added at room temperature. The solids formed were resuspended and allowed to settle for 15 min at room temperature. Then, 38 µL of the supernatant were transferred to a new plate and diluted to 250 µL with a 30% (v/v) pyridine solution (20 mM HEPES, pH 7.5). The color reaction was read in a spectophometer at 405 nm and the results were expressed as the concentration of free heme in each well, which was calculated from the standard absorbance curve of a known hemin solution. CQ was used as a positive control and the cut off was determined by the amount of free heme in the drug-free control. Each compound was evaluated in two different experiments.

CCN(CC)CCCC(C)Nc1ccnc2cc(Cl)ccc12 (stereo not shown) [CQ, Chloroquine]
IC50 ([1]; W2, read-out: IC50 HRPII, W2 (CQ resistant)): 0.12 µM | IC50 ([2]; W2, read-out: IC50 Hypoxanthine, W2 (CQ resistant)): 0.18 µM | IC50 ([3]; 3D7, read-out: IC50 HRPII, 3D7 (CQ sensitive)): 0.0069 ± 0.0009 µM | IC50 ([4]; 3D7, read-out: IC50 Hypoxanthine, 3D7 (CQ sensitive)): 0.0074 ± 0.0012 µM | Time of survival (P. berghei, NK65 strain; 20 mg/kg daily): >30 days | Percent reduction of parasitemia, day 5 (P. berghei, NK65 strain; 20 mg/kg daily): 100% | Percent reduction of parasitemia, day 8 (P. berghei, NK65 strain; 20 mg/kg daily): 100% | Percent reduction of parasitemia, day 10 (P. berghei, NK65 strain; 20 mg/kg daily): 100% | Suppression of parasitemia (P. berghei, NK65 strain; CQ 20 mg/kg, day not given): 100%

NCCNCCNc1ccnc2cc(Cl)ccc12 [MAQ, N^1-(2-aminoethyl)-N^2-(7-chloroquinol-4-yl)ethane-1,2-diamine]
IC50 ([1]; W2, dose that inhibits 50% of blood parasites growth, three or four experiments, read-out: IC50 HRPII, W2 (CQ resistant)): 0.26 ± 0.02 µM | IC50 ([2]; W2, dose that inhibits 50% of blood parasites growth, three or four experiments, read-out: IC50 Hypoxanthine, W2 (CQ resistant)): 0.32 ± 0.07 µM | IC50 ([3]; 3D7, dose that inhibits 50% of blood parasites growth, three or four experiments, read-out: IC50 HRPII, 3D7 (CQ sensitive)): 0.026 ± 0.002 µM | IC50 ([4]; 3D7, dose that inhibits 50% of blood parasites growth, three or four experiments, read-out: IC50 Hypoxanthine, 3D7 (CQ sensitive)): 0.066 ± 0.005 µM | Selectivity index BGM ([5]; MDL50/IC50): 384 | MDL50 BGM ([5]; monkey, 24 h): 100 ± 0.0 µM | Selectivity index HepG2 ([6]; MDL50/IC50): 1038 | MDL50 HepG2 ([6]; human, 24 h): 270 ± 10 µM | Activity in vivo (class) (P. berghei, NK65 strain; 25 mg/kg): active | Time of survival (P. berghei, NK65 strain; 25 mg/kg daily, oral gavage): 24 ± 1 days | Percent reduction of parasitemia, day 5 (P. berghei, NK65 strain; 25 mg/kg daily, oral gavage): 91% | Percent reduction of parasitemia, day 8 (P. berghei, NK65 strain; 25 mg/kg daily, oral gavage): 61% | Percent reduction of parasitemia, day 10 (P. berghei, NK65 strain; 25 mg/kg daily, oral gavage): 70% | Time of survival (P. berghei, NK65 strain; 50 mg/kg daily, oral gavage): 25 ± 1 days | Percent reduction of parasitemia, day 5 (P. berghei, NK65 strain; 50 mg/kg daily, oral gavage): 95% | Percent reduction of parasitemia, day 8 (P. berghei, NK65 strain; 50 mg/kg daily, oral gavage): 71% | Percent reduction of parasitemia, day 10 (P. berghei, NK65 strain; 50 mg/kg daily, oral gavage): 76% | Activity in vivo (class) (P. berghei, NK65 strain; 50 mg/kg, days 5, 8 and 10 post-infection): active | Inhibition of hemozoin formation in vitro (hemozoin formation): more evident with MAQ than with BAQ or CQ
